We go through 3 molecules from US10357514B2, “Treatment of cancer using anti-CD19 Chimeric Antigen Receptor” (The Trustees of the University of Pennsylvania, priority 2014, dated 2019).

Experiment [1] has as its system RL. Briefly: MTT assay, ibrutinib inhibition of proliferation. Format: cell-based. The note with it: Homo sapiens.
The test system of experiment [2] is Jeko-1. In words: MTT assay, ibrutinib inhibition of proliferation. The class given is cell-based. The note with it: Homo sapiens. (Formazan colour is commonly taken as a measure of viable cells.)
The test system of experiment [3] is Mino. Briefly: MTT assay, ibrutinib inhibition of proliferation. The class given is cell-based. The note with it: Homo sapiens.
Experiment [4] concerns RL cells. Briefly: Ibrutinib sensitivity by reduction of bioluminescence (BLI). Format: cell-based, human. The note with it: 0.1 nM to 10 μM.
The subject of experiment [5] is JEKO-1 cells. The description is as above. Format: cell-based, human. The note with it: 0.1 nM to 10 μM.
In experiment [6] the test system is MCL-RL cells. Briefly: MCL-RL xenograft model in NSG mice. The class given is in vivo. The method, then: NOD-SCID-γ chain−/− (NSG) mice originally obtained from Jackson Laboratories were purchased from the Stem Cell and Xenograft Core of the University of Pennsylvania. All experiments were performed on protocols approved by the Institutional Animal Care and Use Committee (IACUC). Schematics of the utilized xenograft models are discussed herein. Cells (MCL cell lines or T cells) were injected in 200 ul of PBS at the indicated concentration into the tail veins of mice. Bioluminescent imaging was performed using a Xenogen IVIS-200 Spectrum camera and analyzed with LivingImage software v. 4.3.1 (Caliper LifeSciencies). Animals were euthanized at the end of the experiment or when they met pre-specified endpoints according to the IACUC protocols.
Schematics such as those shown in FIGS. 20, 55, and 5A were used in this example. […] 1×10^6 cells from RL (MCL-3), JEKO-1 (MCL-4), and NALM6 (MCL-5) cell lines are injected in NSG mice (20 mice for each experiment). […] At Day 7, Day 14, Day 21, and Day 28, the bioluminescence is imaged to monitor tumor size. […] Survival of the mice is also monitored. […] 2×10^6 MCL-RL cells are injected into NSG mice. […] At days 14, 21, 28, and 35 (after injection of MCL-RL cells), the bioluminescence is imaged to monitor tumor size.
Mean bioluminescence, representing tumor growth, was assessed at various timepoints.

The test system of experiment [7] is PBMCs. In words: CAR19 lentiviral transduction of ibrutinib-treated normal donor PBMCs. Format: cell-based, human. The note with it: PBMCs incubated with 5 μM ibrutinib for 30 minutes. As for the experimental part:
Normal donor PBMCs were obtained using apheresis as described herein, for example in Example 6. […] The cells were then transduced with lentiviral constructs containing CAR19 to generate CART19 T cells using the methods described herein, for example, in Example 4. The number of CART19 T cells generated from ibrutinib-treated PBMCs FACs analysis was performed to determine the number of CART19 T cells generated from ibrutinib-treated PBMCs compared to untreated PBMCs.

The test system of experiment [8] is Nalm/6 cells. Briefly: Nalm/6 tumor model in NSG mice. The class given is in vivo. The method, then: CART19 function was assessed in an in vivo mouse model. Nalm/6 cells (human acute lymphoblastic leukemia cell line) were implanted into NSG mice, and the mice were monitored daily for at least 50 days. […] CART19 was administered on day 7 or day 9, or mice were left untreated (control). […] For example, the cells were stained with anti-human CD19 antibody to determine the percent of human CD19+(Nalm/6) cells in the blood of the tumor-bearing NSG mice.

For experiment [9], the system named is CART19 T cells. The note with it: 0.1, 0.5, 1 and 5 μM ibrutinib.
For experiment [10], the system named is MCL. The note with it: cited from earlier work.
For experiment [11] the following is noted: mice; cited from earlier work.
For experiment [12], the system named is luciferase-expressing mantle cell line (RL luc). In words: Lymphoma xenograft model, tumor burden by mean bioluminescence. Format: in vivo, NSG mice. The note with it: 200 ng/mouse i.p. three times weekly from Day 85, mice with suboptimal response to CART19. From the text: Tumor size was monitored by measuring the mean bioluminescence of the engrafted tumors over more than 80 days. […] When comparing the tumor burden of mice that received IL-7 treatment to control, before and after IL-7 treatment, tumor reduction in tumor burden was only seen in the mice that had received IL-7 treatment (FIG. 49C).

Consider `C=CC(=O)N1CCC[C@@H](n2nc(-c3ccc(Oc4ccccc4)cc3)c3c(N)ncnc32)C1` [ibrutinib, 1-[(3R)-3-[4-Amino-3-(4-phenoxyphenyl)-1H-pyrazolo[3,4-d]pyrimidin-1-yl]piperidin-1-yl]prop-2-en-1-one], for which the IC50 in experiment [1] was 0.01 µM; in experiment [2], ≤ 10 µM; in experiment [3], ≤ 10 µM. For the same molecule, the “sensitivity to ibrutinib (reduction of bioluminescence)” value is listed as “sensitive” in [4] and “resistant” in experiment [5]. Also, the median overall survival in [6] (25 mg/kg/day) is 81 days; in [6] (125 mg/kg/day), 100 days. For the same molecule, the “tumor growth (mean bioluminescence)” value in [6] (ibrutinib alone, 25 and 250 mg/kg/day) is given as “dose-related sensitivity”. Besides, the “circulating and nodal/organ MCL cells” value in experiment [6] (one week after beginning ibrutinib alone) was “more circulating MCL cells and fewer nodal/organ MCL cells”. In experiment [6] (treatment from Day 7, CART19 2×10^6 cells, ibrutinib 125 mg/kg/day), the “tumor burden (bioluminescence)” value is “modestly delayed tumor growth at early time points”. For the same molecule, the “transduced PBMCs expressing CAR19” value in [7] was found to be 15%. In experiment [8] (daily oral gavage from day 7, CART19 on day 7 or 9), the “Nalm/6 cells circulating in peripheral blood” value was “does not impair CART19 function in clearing Nalm/6 cells”. For the same molecule, the “survival after injection of Nalm/6 cells” value in [8] (ibrutinib without CART19 T cells) is on record as ≤ 30 days. Besides, in experiment [9], the “CD3/CD28-stimulated CART19 cell proliferation” value is recorded as “did not affect CART19 cell proliferation”. In experiment [10], the “patients who do not respond” value is listed as “about 30%”.
Turning to `CO[C@H]1C[C@@H]2CC[C@@H](C)[C@@](O)(O2)C(=O)C(=O)N2CCCC[C@H]2C(=O)O[C@H]([C@H](C)C[C@@H]2CC[C@@H](O)[C@H](OC)C2)CC(=O)[C@H](C)/C=C(\C)[C@@H](O)[C@@H](OC)C(=O)[C@H](C)C[C@H](C)/C=C/C=C/C=C/1C` [rapamycin], the lifespan result in [11] was “extended lifespan”.

B1: IL-7: exogenous recombinant human IL-7 (protein, UniProt P13232 26-177, looked up)
Interleukin-7: DCDIEGKDGKQYESVLMVSIDQLLDSMKEIGSNCLNNEFNFFKRHICDANKEGMFLFRAARKLRQFLKMNSTGDFDLHLLKVSEGTTILLNCTGQVKGRKPAALGEAQPTKSLEENKSLKEQKKLNDLCFLKRLLQEIKTCWNKILMGTKEH
Take B1: in experiment [12], the “reduction in tumor burden” value was 1-3 log.

For orientation: IC50 means the midpoint of a concentration-inhibition curve. Read a high IC50 as a need for much substance.
